# Assay results from patent US11944605B2, “Rapamycin analogs and uses thereof” (Janssen Pharmaceutica NV, priority 2018, dated 2024).
# What was measured:
# [1] = test system: pS6K1 (p-p70 S6 Kinase (Thr389)) in MCF-7 cells; experiment: AlphaLISA Ultra pS6K1 Assay; format: cell-based; conditions: Homo sapiens, 1.5 h; MCF7 cells, 90 min
# Protocol: AlphaLISA Ultra pS6K1 Assay
# 1. Seed MCF-7 cells in Corning 3701 plate and incubate for 20˜24 hour. 12,000˜16,000 cells will be seeded in 36 μL medium per well.
# 2. Change the culture medium with fresh medium and incubate for another 2 hours.
# 3. Add 12 μL (4×) compounds into the cell plate by HAMILTON. Final DMSO concentration is 0.5%. Incubate for 90 minutes.
# 4. Aspirate […] by HAMILTON, 10 μL rest per well.
# 5. Add 10 μL 2× lysis buffer using HAMILTON; total volume in wells is 20 μL. Allow cells to shake for 30 min. Cover plate by plastic foil and store plate at −80° C. up to analysis.
# 6. Thaw cell lysate at RT and transfer 10 μL lysate to assay plate (Optiplate-384).
# 7. Add 5 μL acceptor beads into assay plate and incubation for 2 hours
# 8. Add 5 μL donor beads and incubation for 2 hours
# 9. Count the plate by EnSpire Multimode Plate Reader
# mTORC1 over mTORC2 = experiment: mTORC1 selectivity over mTORC2 at 24 hrs (Western blot based pS6K1 and pAKT assay); format: cell-based; conditions: 24 hrs
# Protocol: Western Blot Based pS6K1 and pAKT Assay at 24 and 48 Hour Timepoints
# 1. Seed six well plate with 500,000 PC3 cells per well and incubate for 20˜24 hour.
# 2. Add compounds into the cell plate. Incubate for 24 to 48 hours.
# 4. Plate is placed on ice and the media is removed via aspiration. The wells are washed with 1 mL of 1× PBS and then fully aspirated.
# 5. 110 μL of 1% Triton Lysis Buffer is added and each well is scraped vigorously.
# 6. Cell homogenates are transferred to 1.5 mL eppendorf tubes on ice and spun down at 4° C. for 10 minutes at 10,000 rpm.
# 9. The membranes were washed 3× with TBS-T with a 5 minute incubation between each wash then incubated with secondary antibody (LiCor IRDye 800 Donkey Anti Rabbit) for at least 30 minutes.
# 10. The membranes were washed 3× with TBS-T with a 5 minute incubation between each wash.
# 11. The gels were then incubated for 5 minutes with PBS at room temperature then imaged using a Li-Cor.
# “N/A” stands for “not assayed.”
Compound,IC50 [1],mTORC1 selective @ 24 hrs (mTORC1 over mTORC2)
"CO[C@@H]1C[C@H](C[C@@H](C)[C@@H]2CC(=O)[C@H](C)/C=C(\C)[C@@H](O)[C@@H](OC)C(=O)[C@H](C)C[C@H](C)/C=C/C=C/C=C(\C)[C@H](OCC3COCCOCCOCCOCCO3)C[C@@H]3CC[C@@H](C)[C@@](O)(O3)C(=O)C(=O)N3CCCC[C@H]3C(=O)O2)CC[C@H]1O (stereo partly drawn) [I-107, (30E,32E,34E,35E,38R,39S,40R,41R,43S,45S,47R,48S,50R,51R,60R)-50, 60-dihydroxy-48-[(1R)-2-[(1S,3R,4R)-4-hydroxy-3-methoxy-cyclohexyl]-1-methyl-ethyl]-51-methoxy-38, 39,40,41,52,53-hexamethyl-47-(1,4,7,10,13-pentaoxacyclopentadec-2-ylmethoxy)-75, 76-dioxa-61-azatricyclohexatriaconta-30,32,34(52),35(53)-tetraene-54,55,56,57,58-pentone]",≥ 100 nM,YES
"CO[C@@H]1C[C@H](C[C@@H](C)[C@@H]2CC(=O)[C@H](C)/C=C(\C)[C@@H](O)[C@@H](OC)C(=O)[C@H](C)C[C@H](C)/C=C/C=C/C=C(\C)[C@@H](OCC3COCCOCCOCCOCCO3)C[C@@H]3CC[C@@H](C)[C@@](O)(O3)C(=O)C(=O)N3CCCC[C@H]3C(=O)O2)CC[C@H]1O (stereo partly drawn) [I-108, (30E, 32E,34E,35E,38R,39S,40R,41R,43S,45S,47S,48S,50R,51R,60R)-50, 60-dihydroxy-48-[(1R)-2-[(1S,3R,4R)-4-hydroxy-3-methoxy-cyclohexyl]-1-methyl-ethyl]-51-methoxy-38, 39,40,41,52,53-hexamethyl-47-(1,4,7,10,13-pentaoxacyclopentadec-2-ylmethoxy)-75, 76-dioxa-61-azatricyclohexatriaconta-30, 32,34(52),35(53)-tetraene-54,55,56,57,58-pentone]",0.1 to 1 nM,YES
"CO[C@@H]1C[C@H](C[C@@H](C)[C@@H]2CC(=O)[C@H](C)/C=C(\C)[C@@H](O)[C@@H](OC)C(=O)[C@H](C)C[C@H](C)/C=C/C=C/C=C(\C)[C@H](OCCOCCOCCO)C[C@@H]3CC[C@@H](C)[C@@](O)(O3)C(=O)C(=O)N3CCCC[C@H]3C(=O)O2)CC[C@H]1OCCO [I-109, (21E,23E,25E,26E,36R,37S,38R,39R,41S,43S,45R,46S,47R,48R,57R)-47, 57-dihydroxy-45-[2-[2-(2-hydroxyethoxy)ethoxy]ethoxy]-46-[(1R)-2-[(1S,3R, 4R)-4-(2-hydroxyethoxy)-3-methoxy-cyclohexyl]-1-methyl-ethyl]-48-methoxy-36,37,38,39,49,50-hexamethyl-68, 69-dioxa-58-azatricyclohexatriaconta-21,23,25(49),26(50)-tetraene-51,52,53,54,55-pentone]",1 to 10 nM,YES
"CO[C@@H]1C[C@H](C[C@@H](C)[C@@H]2CC(=O)[C@H](C)/C=C(\C)[C@@H](O)[C@@H](OC)C(=O)[C@H](C)C[C@H](C)/C=C/C=C/C=C(\C)[C@H](OCC3COCCOCCOCCO3)C[C@@H]3CC[C@@H](C)[C@@](O)(O3)C(=O)C(=O)N3CCCC[C@H]3C(=O)O2)CC[C@H]1O (stereo partly drawn) [I-111, (28E,30E,32E,33E,36R,37S,38R,39R,41S,43S,45R,46S,48R,49R,58R)-48, 58-dihydroxy-46-[(1R)-2-[(1S,3R,4R)-4-hydroxy-3-methoxy-cyclohexyl]-1-methyl-ethyl]-49-methoxy-36, 37,38,39,50,51-hexamethyl-45-(1,4,7,10-tetraoxacyclododec-2-ylmethoxy)-72,73-dioxa-59-azatricyclohexatriaconta-28, 30,32(50),33(51)-tetraene-52,53,54,55,56-pentone]",1 to 10 nM,YES
